Results reported in article PMC11124341, “4-Hydroxybenzoic Acid-Based Hydrazide–Hydrazones as Potent Growth Inhibition Agents of Laccase-Producing Phytopathogenic Fungi That Are Useful in the Protection of Oilseed Crops” (Molecules, 2024).
In brackets after ≈: the same amount, converted by molar mass.

How the values were obtained:
[1] = system: Sclerotinia sclerotiorum strain FSc10; test: In vitro antifungal activity, mycelial growth inhibition on PDA medium; format: cell-based
Procedure: (§1) The cultures of Botrytis cinerea strain FBc05 and Sclerotinia sclerotiorum strain FSc10 were obtained from the collection of the Division of Plant Pathology and Mycology at the Department of Plant Protection of Wroclaw University of Environmental and Life Sciences (Poland). Cerrena unicolor (Bull.ex.Fr.) Murr, strain no. 139, originated from the culture collection of the Department of Biochemistry, University of Lublin (Poland). The stock cultures were maintained on potato dextrose agar at +4 °C and periodically transferred to a fresh medium.
(§2) Prior to the fungicidal activity assay of hydrazide–hydrazones 1–35, we considered ethanol and DMSO as potential dissolution media for tested compounds. […] Furthermore, a very important aspect of biological testing is the careful selection of organic solvents. These are typically used, e.g., methanol, ethanol, acetone, and DMSO, and may be highly toxic for microorganisms in even very low concentrations, such as 1% (v/v). Ethanol and DMSO with a final concentration between 0.1 and 1.0% (v/v) in a PDA medium were used and applied to evaluate the inhibition growth of B. cinerea, S. sclerotiorum, and C. unicolor (see Supplementary Materials). The following procedure was applied to the microorganism testing. The assays of fungi inhibition growth were performed at a basal concentration of 50 µg/mL for all compounds, and detailed experiments were extended for testing between 0 and 50 µg/mL (0, 6.25, 12.5, 25.0, and 50.0 µg/mL) for selected compounds. The tests were carried out on Petri dishes (diameter 60 mm) with PDA medium containing appropriate compound, co-solvent control, and hydrazide–hydrazone dissolved in co-solvent assay. A piece of mycelium with a 5 mm edge taken from the outer edge of the growing fungi on the PDA plate with co-solvent was transferred to a central part of the PDA plate with the examined compound. The plates thus inoculated were incubated at 22 °C in the dark for a time when the control plate containing only the co-solvent was covered entirely with the tested microorganism. For B. cinerea and S. sclerotiorum, the test took 3 days, and for C. unicolor, it took 7 days. Each assay was performed at least in triplicate. […] Model parameters c and e were estimated using the nonlinear least-squares method. Parameters d and b (with two exceptions) were fixed and assumed to be equal. Based on estimated parameters, the values of IC50 were determined. […] The IC50 values were calculated only in cases when the model predicted a decrease in growth rate by more than 50%.
(§3) In vitro antifungal activity
(§4) Prior to the fungicidal activity assay of hydrazide-hydrazones 1–35, we considered ethanol (EtOH) and DMSO as potential dissolution media for tested compounds.
(§5) EtOH and DMSO with a final concentration between 0.1–1.0% (v/v) in a PDA medium were applied to evaluate the inhibition growth of B. cinerea, S. sclerotiorum, and C. unicolor (see Table S3). The following procedure was applied to the microorganism testing with the hydrazide-hydrazones. The assays of fungi inhibition growth were performed at a basal concentration of 50 µg/mL for all compounds, and detailed experiments were extended for testing selected molecules 18, 19, 27, […]
(§6) Table S2. In vitro antifungal activity for DMSO and ethanol co-solvents.

[2] = system: Botrytis cinerea strain FBc05; test: as above; format: cell-based; settings: for inhibition of growth at 50 µg/mL / fungal growth inhibition, B. cinerea: screening at basal 50 µg/mL, PDA medium, mean ± SD of three determinations; for inhibition of growth at 50 µg/mL: read-out: fungal growth inhibition, B. cinerea
Procedure: as §1, §2, §3, §4, §5, §6

[3] = system: Cerrena unicolor strain no. 139; test: as above; format: cell-based; settings: Cerrena unicolor, NO.139; screening at basal 50 µg/mL, PDA medium, mean ± SD of three determinations; read-out: fungal growth inhibition, C. unicolor
Procedure: as §1, §2, §3, §4, §5, §6

[4] = molecular target: laccase from Trametes versicolor; settings: read-out: Laccase inhibition, Ki; cited from earlier work
[5] = screening at basal 50 µg/mL, PDA medium, mean ± SD of three determinations

Q: With `CCO` [EtOH, ethanol] as the compound, how does the “IC50 of co-solvent, S. sclerotiorum” value ([1]; co-solvent at 0.1–1.0% (v/v) in PDA medium) read?
A: n.o.

Q: For `COc1ccc(C(=O)N/N=C/c2cccc(-c3ccccc3)c2O)cc1` [compound 20], which inhibition of growth at 50 µg/mL ([2]; Botrytis cinerea, FBC05) is on record?
A: 3.3 ± 1.2%

Q: And the inhibition of growth at 50 µg/mL [3]?
A: 35.4 ± 2.4%

Q: And the “fungal growth inhibition, S. sclerotiorum” value [1, 5]?
A: n.o.

Q: And the Ki [4]?
A: ≥ 1000 µM

Q: For `O=C(N/N=C/CCc1ccccc1)c1ccc(O)cc1` [compound 2], which “fungal growth inhibition, B. cinerea” value [2] is on record?
A: n.o.

Q: And the inhibition of growth at 50 µg/mL [3]?
A: 18 ± 3.2%

Q: And the “fungal growth inhibition, S. sclerotiorum” value [1, 5]?
A: n.o.

Q: What about the Ki [4] of the same compound?
A: 1920 µM

Q: With `O=C(N/N=C/c1ccccc1)c1ccc(O)cc1` [compound 1] as the compound, how does the inhibition of growth at 50 µg/mL ([2]; Botrytis cinerea, FBC05) read?
A: 2.6 ± 0.2%

Q: And the inhibition of growth at 50 µg/mL [3]?
A: 10.6 ± 1.1%

Q: And the “fungal growth inhibition, S. sclerotiorum” value [1, 5]?
A: n.o.

Q: What about the Ki [4] of the same compound?
A: 1470 µM

Q: With `COc1ccccc1/C=N/NC(=O)c1ccc(O)cc1` [compound 9] as the compound, how does the inhibition of growth at 50 µg/mL ([2]; Botrytis cinerea, FBC05) read?
A: 3.3 ± 1.2%

Q: And the inhibition of growth at 50 µg/mL [3]?
A: 22.3 ± 2.6%

Q: And the “fungal growth inhibition, S. sclerotiorum” value [1, 5]?
A: n.o.

Q: And the Ki [4]?
A: 1060 µM

Q: Which results are given for `Cc1ccc(C(C)C)c(O)c1/C=N/NC(=O)c1ccc(O)cc1` [compound 28]?
A: IC50 ([2]; Botrytis cinerea, FBC05, log-logistic model, 0–50 µg/mL range, read-out: IC50 against Botrytis cinerea (Bc)): 52.7 µg/mL (≈ 169 µM); inhibition of growth at 50 µg/mL ([2]; Botrytis cinerea, FBC05): 50.8 ± 2.6%; inhibition of growth at 50 µg/mL [3]: 38.2 ± 2.3%; IC50 ([1]; Sclerotinia sclerotiorum, FSC10, log-logistic model, 0–50 µg/mL range, read-out: IC50 against Sclerotinia sclerotiorum (Ss)): 9.8 µg/mL (≈ 31.4 µM); inhibition of growth at 50 µg/mL ([1]; Sclerotinia sclerotiorum, FSC10, screening at basal 50 µg/mL, PDA medium, mean ± SD of three determinations, read-out: fungal growth inhibition, S. sclerotiorum): 91.4 ± 2.2%; Ki [4]: > 1000 µM

Q: With `COc1ccc(C(=O)N/N=C/c2cc(C)cc(C(C)(C)C)c2O)cc1` [compound 31] as the compound, how does the inhibition of growth at 50 µg/mL ([2]; Botrytis cinerea, FBC05) read?
A: 2.1 ± 0.9%

Q: What about the inhibition of growth at 50 µg/mL [3] of the same compound?
A: 13.8 ± 3.9%

Q: And the “fungal growth inhibition, S. sclerotiorum” value [1, 5]?
A: n.o.

Q: What about the Ki [4] of the same compound?
A: 25.8 µM

Q: For `COc1cccc(OC)c1/C=N/NC(=O)c1ccc(O)cc1` [compound 16], which “fungal growth inhibition, B. cinerea” value [2] is on record?
A: n.o.

Q: And the inhibition of growth at 50 µg/mL [3]?
A: 32.1 ± 3.1%

Q: And the “fungal growth inhibition, S. sclerotiorum” value [1, 5]?
A: n.o.

Q: And the Ki [4]?
A: ≥ 1000 µM

Q: Which results are given for `COc1cccc(O)c1/C=N/NC(=O)c1ccc(O)cc1` [compound 15]?
A: fungal growth inhibition, B. cinerea [2]: n.o.; inhibition of growth at 50 µg/mL [3]: 43.1 ± 3%; fungal growth inhibition, S. sclerotiorum [1, 5]: n.o.; Ki [4]: ≥ 1000 µM

Q: With `Cc1cc(/C=N/NC(=O)c2cccnc2)c(O)c(C(C)(C)C)c1` [compound 34] as the compound, how does the inhibition of growth at 50 µg/mL ([2]; Botrytis cinerea, FBC05) read?
A: 7.5 ± 0.6%

Q: What about the inhibition of growth at 50 µg/mL [3] of the same compound?
A: 29.6 ± 2.7%

Q: What about the “fungal growth inhibition, S. sclerotiorum” value [1, 5] of the same compound?
A: n.o.

Q: For `O=C(N/N=C/c1ccccc1S(=O)(=O)[O-])c1ccc(O)cc1.[Na+]` [compound 5], which “fungal growth inhibition, B. cinerea” value [2] is on record?
A: n.o.

Q: What about the inhibition of growth at 50 µg/mL [3] of the same compound?
A: 23.6 ± 4.2%

Q: And the “fungal growth inhibition, S. sclerotiorum” value [1, 5]?
A: n.o.

Q: And the Ki [4]?
A: ≥ 2400 µM

Q: For `O=C(N/N=C/c1ccc(O)cc1O)c1ccc(O)cc1` [compound 21], which “fungal growth inhibition, B. cinerea” value [2] is on record?
A: n.o.

Q: What about the inhibition of growth at 50 µg/mL [3] of the same compound?
A: 30.1 ± 4.3%

Q: And the “fungal growth inhibition, S. sclerotiorum” value [1, 5]?
A: n.o.

Q: What about the Ki [4] of the same compound?
A: 939 µM

Q: Which inhibition of growth at 50 µg/mL ([2]; Botrytis cinerea, FBC05) does the source give for `CC(C)c1ccc(/C=N/NC(=O)c2ccc(O)cc2)cc1` [compound 4] here?
A: 12 ± 2.6%

Q: What about the inhibition of growth at 50 µg/mL [3] of the same compound?
A: 20.9 ± 2.8%

Q: And the “fungal growth inhibition, S. sclerotiorum” value [1, 5]?
A: n.o.
